Measurements published in patent US20060069132A1, “Azolecarboxamide herbicides” (priority 2004, published 2006).

What was measured:
[1] = test system: small flower umbrella sedge; assay: Test B flooded paddy test; assay type: in vivo, Cyperus difformis; settings: 1000 g ai/ha, scale 0 to 100 (0 no effect, 100 complete control)
Procedure, shortened: (§1)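 Plants grow to 1- to 4-leaf stage (2–18 cm) for postemergence spraying, or to 2-leaf stage for the paddy test. Formulated compound is applied. Greenhouse holding lasts 13–15 days. Response is scored visually relative to controls, 0 no effect to 100 complete control; a dash means no result.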

ducksalad = assay: Test B flooded paddy test; assay type: in vivo, Heteranthera limosa; settings: 1000 g ai/ha, scale 0 to 100 (0 no effect, 100 complete control)
Procedure, shortened: as §1

barnyardgrass [2] = assay: Test B pre-/postemergence herbicide test; assay type: in vivo, Echinochloa crus-galli; settings: for Plant response rating (0 to 100 scale), Barnyardgrass: 0 is no effect, preemergence; for Barnyardgrass plant response rating: postemergence
Procedure, shortened: (§2)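 Species tested were Echinochloa crus-galli, Ipomoea coccinea, Xanthium strumarium and Oryza sativa, treated both before emergence and at the 1- to 4-leaf stage; rice and barnyardgrass were also tested under flooding at 2 leaves. Greenhouse incubation lasted 13–15 days before visual 0–100 scoring.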

giant foxtail = assay: Test B pre-/postemergence herbicide test; assay type: in vivo, Setaria faberi; settings: for Plant response rating (0 to 100 scale), Foxtail, Giant: 0 is no effect, preemergence; for Foxtail, Giant plant response rating: postemergence
Procedure, shortened: (§3)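 Visual rating, 0 (no effect) to 100 (complete control), versus untreated controls after 13–15 d in greenhouse. Pre- and postemergence applications (postemergence plants 2–18 cm, 1–4 leaves); flooded paddy arm at 2-leaf stage. Compounds in non-phytotoxic solvent plus surfactant.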

rice = assay: Test B flooded paddy test; assay type: in vivo, Oryza sativa; settings: 1000 g ai/ha, scale 0 to 100 (0 no effect, 100 complete control)
Procedure, shortened: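 Read-out: visual comparison with controls, scored 0 to 100, where 100 means complete control and 0 no effect. Formulated chemicals were applied postemergence to plants 2–18 cm tall (1- to 4-leaf), or to flooded-paddy plants at the 2-leaf stage, then held 13 to 15 days under glass.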

lambsquarters = assay: Test B pre-/postemergence herbicide test; assay type: in vivo, Chenopodium album; settings: for Plant response rating (0 to 100 scale), Lambsquarters: 0 is no effect, 100 is complete control, preemergence; for Lambsquarters plant response rating: scale 0 (no effect) to 100 (complete control)
Procedure, shortened: as §3

barnyardgrass [3] = assay: Test B flooded paddy test; assay type: in vivo, Echinochloa crus-galli; settings: 1000 g ai/ha, scale 0 to 100 (0 no effect, 100 complete control)
Procedure, shortened: as §1

blackgrass = assay: Test B postemergence herbicide test; assay type: in vivo, Alopecurus myosuroides; settings: postemergence
Procedure, shortened: as §1

morningglory = assay: Test B pre-/postemergence herbicide test; assay type: in vivo, Ipomoea coccinea; settings: for Plant response rating (0 to 100 scale), Morningglory: 0 is no effect, 100 is complete control, preemergence; for Morningglory plant response rating: scale 0 (no effect) to 100 (complete control)
Procedure, shortened: as §2

cocklebur = assay: Test B pre-/postemergence herbicide test; assay type: in vivo, Xanthium strumarium; settings: for Plant response rating (0 to 100 scale), Cocklebur: 0 is no effect, preemergence; for Cocklebur plant response rating: postemergence
Procedure, shortened: as §2

pigweed = assay: Test B pre-/postemergence herbicide test; assay type: in vivo, Amaranthus retroflexus; settings: for Plant response rating (0 to 100 scale), Pigweed: 0 is no effect, 100 is complete control, preemergence; for Pigweed plant response rating: scale 0 (no effect) to 100 (complete control)
Procedure, shortened: as §3

corn = assay: Test B pre-/postemergence herbicide test; assay type: in vivo, Zea mays; settings: for Plant response rating (0 to 100 scale), Corn: 0 is no effect, preemergence; for Corn plant response rating: postemergence
Procedure, shortened: as §3

large crabgrass = assay: Test B pre-/postemergence herbicide test; assay type: in vivo, Digitaria sanguinalis; settings: for Plant response rating (0 to 100 scale), Crabgrass, Large: 0 is no effect, preemergence; for Crabgrass, Large plant response rating: postemergence
Procedure, shortened: as §3

wheat = assay: Test B postemergence herbicide test; assay type: in vivo, Triticum aestivum; set-up: key to Wheat plant response rating: 0 = no effect, 100 = complete control
Procedure, shortened: (§4)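 Treated at 2-leaf (paddy) or 1–4-leaf, 2–18 cm (postemergence); greenhouse 13–15 d; visual score vs control, 0 none to 100 complete control; dash = not tested.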

velvetleaf = assay: Test B pre-/postemergence herbicide test; assay type: in vivo, Abutilon theophrasti; settings: for Plant response rating (0 to 100 scale), Velvetleaf: 0 is no effect, 100 is complete control, preemergence; for Velvetleaf plant response rating: scale 0 (no effect) to 100 (complete control)
Procedure, shortened: as §3

wild oat = assay: Test B postemergence herbicide test; assay type: in vivo, Avena fatua; settings: scale 0 (no effect) to 100 (complete control)
Procedure, shortened: as §4

Surinam grass = assay: Test B pre-/postemergence herbicide test; assay type: in vivo, Urochloa decumbens; settings: for Plant response rating (0 to 100 scale), Surinam Grass: 0 is no effect, 100 is complete control, preemergence; for Surinam Grass plant response rating: scale 0 (no effect) to 100 (complete control)
Procedure, shortened: as §3

[4] = 125 g ai/ha, 100 is complete control
[5] = 125 g ai/ha, visual rating, scale 0 (no effect) to 100 (complete control)
[6] = 500 g ai/ha, scale 0 to 100, 0 is no effect, 100 is complete control
[7] = 125 g ai/ha, visual rating, postemergence
[8] = 125 g ai/ha, visual rating, scale 0 (no effect) to 100 (complete control), postemergence
[9] = 500 g ai/ha, scale 0 to 100, 0 no effect, 100 complete control, preemergence
[10] = Postemergence, 500 g ai/ha, scale 0 (no effect) to 100 (complete control)

CCNC(=O)c1ccc(F)c(NC(=O)c2nn(C(C)(C)CC)nc2CC)c1 [Compound 370]
Sedge, Umbrella plant response rating [1]: 40
Ducksalad plant response rating (ducksalad): 60
Plant response rating (0 to 100 scale), Barnyardgrass (barnyardgrass [2]; [4]): 10
Barnyardgrass plant response rating (barnyardgrass [2]; [5]): 0
Barnyardgrass plant response rating (barnyardgrass [2]; [6]): 0
Plant response rating (0 to 100 scale), Foxtail, Giant (giant foxtail; [4]): 0
Foxtail, Giant plant response rating (giant foxtail; [5]): 0
Foxtail, Giant plant response rating (giant foxtail; [6]): 20
Rice plant response rating (rice): 30
Plant response rating (0 to 100 scale), Lambsquarters (lambsquarters; 125 g ai/ha): 80
Lambsquarters plant response rating (lambsquarters; [7]): 0
Lambsquarters plant response rating (lambsquarters; Postemergence, 500 g ai/ha): 20
Barnyardgrass plant response rating (barnyardgrass [3]): 0
Blackgrass plant response rating (blackgrass; [5]): 0
Blackgrass plant response rating (blackgrass; [6]): 10
Plant response rating (0 to 100 scale), Morningglory (morningglory; 125 g ai/ha): 0
Morningglory plant response rating (morningglory; [7]): 10
Morningglory plant response rating (morningglory; Postemergence, 500 g ai/ha): 20
Plant response rating (0 to 100 scale), Cocklebur (cocklebur; [4]): 0
Cocklebur plant response rating (cocklebur; [5]): 0
Cocklebur plant response rating (cocklebur; [6]): 0
Plant response rating (0 to 100 scale), Pigweed (pigweed; 125 g ai/ha): 40
Pigweed plant response rating (pigweed; [7]): 0
Pigweed plant response rating (pigweed; Postemergence, 500 g ai/ha): 30
Plant response rating (0 to 100 scale), Corn (corn; [4]): 0
Corn plant response rating (corn; [5]): 10
Corn plant response rating (corn; [6]): 10
Plant response rating (0 to 100 scale), Crabgrass, Large (large crabgrass; [4]): 10
Crabgrass, Large plant response rating (large crabgrass; [5]): 10
Crabgrass, Large plant response rating (large crabgrass; [6]): 10
Wheat plant response rating (wheat; [8]): 0
Wheat plant response rating (wheat; [9]): 0
Wheat plant response rating (wheat; [10]): 0
Plant response rating (0 to 100 scale), Velvetleaf (velvetleaf; 125 g ai/ha): 0
Velvetleaf plant response rating (velvetleaf; [7]): 10
Velvetleaf plant response rating (velvetleaf; Postemergence, 500 g ai/ha): 20
Oat, Wild plant response rating (wild oat; [7]): 0
Oat, Wild plant response rating (wild oat; Postemergence, 500 g ai/ha): 0
Plant response rating (0 to 100 scale), Surinam Grass (Surinam grass; 125 g ai/ha): 0
Surinam Grass plant response rating (Surinam grass; [7]): 10
Surinam Grass plant response rating (Surinam grass; Postemergence, 500 g ai/ha): 10

CCOC(=O)c1ccc(F)c(NC(=O)c2nn(C(C)(C)CC)nc2CC)c1 [Compound 373]
Sedge, Umbrella plant response rating [1]: 20
Ducksalad plant response rating (ducksalad): 0
Plant response rating (0 to 100 scale), Barnyardgrass (barnyardgrass [2]; [4]): 0
Barnyardgrass plant response rating (barnyardgrass [2]; [5]): 10
Barnyardgrass plant response rating (barnyardgrass [2]; [6]): 20
Plant response rating (0 to 100 scale), Foxtail, Giant (giant foxtail; [4]): 0
Foxtail, Giant plant response rating (giant foxtail; [5]): 20
Foxtail, Giant plant response rating (giant foxtail; [6]): 30
Rice plant response rating (rice): 0
Plant response rating (0 to 100 scale), Lambsquarters (lambsquarters; 125 g ai/ha): 0
Lambsquarters plant response rating (lambsquarters; [7]): 20
Lambsquarters plant response rating (lambsquarters; Postemergence, 500 g ai/ha): 30
Barnyardgrass plant response rating (barnyardgrass [3]): 20
Blackgrass plant response rating (blackgrass; [5]): 0
Blackgrass plant response rating (blackgrass; [6]): 10
Plant response rating (0 to 100 scale), Morningglory (morningglory; 125 g ai/ha): 0
Morningglory plant response rating (morningglory; [7]): 20
Morningglory plant response rating (morningglory; Postemergence, 500 g ai/ha): 20
Plant response rating (0 to 100 scale), Cocklebur (cocklebur; [4]): 0
Cocklebur plant response rating (cocklebur; [5]): 10
Cocklebur plant response rating (cocklebur; [6]): 30
Plant response rating (0 to 100 scale), Pigweed (pigweed; 125 g ai/ha): 0
Pigweed plant response rating (pigweed; [7]): 50
Pigweed plant response rating (pigweed; Postemergence, 500 g ai/ha): 70
Plant response rating (0 to 100 scale), Corn (corn; [4]): 0
Corn plant response rating (corn; [5]): 0
Corn plant response rating (corn; [6]): 20
Plant response rating (0 to 100 scale), Crabgrass, Large (large crabgrass; [4]): 0
Crabgrass, Large plant response rating (large crabgrass; [5]): 10
Crabgrass, Large plant response rating (large crabgrass; [6]): 10
Wheat plant response rating (wheat; [8]): 0
Wheat plant response rating (wheat; [9]): 0
Wheat plant response rating (wheat; [10]): 10
Plant response rating (0 to 100 scale), Velvetleaf (velvetleaf; 125 g ai/ha): 0
Velvetleaf plant response rating (velvetleaf; [7]): 20
Velvetleaf plant response rating (velvetleaf; Postemergence, 500 g ai/ha): 30
Oat, Wild plant response rating (wild oat; [7]): 10
Oat, Wild plant response rating (wild oat; Postemergence, 500 g ai/ha): 30
Plant response rating (0 to 100 scale), Surinam Grass (Surinam grass; 125 g ai/ha): 0
Surinam Grass plant response rating (Surinam grass; [7]): 10
Surinam Grass plant response rating (Surinam grass; Postemergence, 500 g ai/ha): 20
